Common to all, as to assay type: functional
Common to all, as to conditions: 72 h

In test [1] the test system is Plutella xylostella. Nature of the test: Insecticidal activity against third-instar larvae of Plutella xylostella (diamondback moth) fed on compound treated cabbage leaves assessed as mortality at 25 mg/l after 3 days relative to control.
The test system of test [2] is Plutella xylostella. Nature of the test: Insecticidal activity against third-instar larvae of Plutella xylostella (diamondback moth) fed on compound treated cabbage leaves assessed as mortality at 6.25 mg/l after 3 days relative to control.
Test [3] concerns Plutella xylostella. Nature of the test: Insecticidal activity against third-instar larvae of Plutella xylostella (diamondback moth) fed on compound treated cabbage leaves assessed as mortality at 100 mg/l after 3 days relative to control.

The structures appear in SMILES notation.

What is called mortality is the percentage killed.

Take `COc1ccc(-c2c(C)c(OCCCOc3c(Cl)cc(OCC=C(Cl)Cl)cc3Cl)nn2C)cc1`: the mortality at 25 µg/mL in the test with Plutella xylostella [1] is 40%. For the same compound, the mortality at 6.25 µg/mL in the test on Plutella xylostella [2] worked out at 10%. Also, the mortality at 100 µg/mL in the test on Plutella xylostella [3] amounted to 100%.

As to `Cn1nc(OCCCOc2c(Cl)cc(OCC=C(Cl)Cl)cc2Cl)cc1-c1ccc(Cl)cc1`, the mortality at 25 µg/mL in the test on Plutella xylostella [1] is 100%. Further, the mortality at 6.25 µg/mL in the test with Plutella xylostella [2] was 65%. Moreover, the mortality at 100 µg/mL in the test with Plutella xylostella [3] came out at 100%.

Take `Cc1c(OCCCOc2c(Cl)cc(OCC=C(Cl)Cl)cc2Cl)nn(C)c1-c1ccc(C(C)C)cc1`: the mortality at 25 µg/mL in the test with Plutella xylostella [1] turned out to be 100%. In addition, the mortality at 6.25 µg/mL in the test with Plutella xylostella [2] came out at 85%. For the same compound, the mortality at 100 µg/mL in the test with Plutella xylostella [3] was 100%.

With `Cc1ccc(-c2c(C)c(OCCCOc3c(Cl)cc(OCC=C(Cl)Cl)cc3Cl)nn2C)cc1C`, the mortality at 25 µg/mL in the test on Plutella xylostella [1] stood at 100%. Moreover, the mortality at 6.25 µg/mL in the test on Plutella xylostella [2] was determined as 87%. In addition, in the test with Plutella xylostella [3], the mortality at 100 µg/mL came out at 100%.

Regarding `FC(F)(F)c1ccc(OCCCOc2c(Cl)cc(OCC=C(Cl)Cl)cc2Cl)nc1` [PYRIDALYL], the mortality at 25 µg/mL in the test with Plutella xylostella [1] was determined as 100%. The mortality at 6.25 µg/mL in the test with Plutella xylostella [2] amounted to 65%. The mortality at 100 µg/mL in the test with Plutella xylostella [3] was 100%.

Take `CCc1ccc(-c2c(C)c(OCCCOc3c(Cl)cc(OCC=C(Cl)Cl)cc3Cl)nn2C)cc1`: the mortality at 25 µg/mL in the test with Plutella xylostella [1] came out at 77%. Moreover, the mortality at 6.25 µg/mL with Plutella xylostella [2] is 60%. Further, the mortality at 100 µg/mL in the test with Plutella xylostella [3] is 100%.

On to `Cc1ccc(-c2c(C)c(OCCCOc3c(Cl)cc(OCC=C(Cl)Cl)cc3Cl)nn2C)c(C)c1`, for which the mortality at 25 µg/mL with Plutella xylostella [1] worked out at 60%. Moreover, in the test with Plutella xylostella [2], the mortality at 6.25 µg/mL was found to be 30%. Further, the mortality at 100 µg/mL with Plutella xylostella [3] worked out at 90%.

Regarding `Cn1nc(OCCCOc2c(Cl)cc(OCC=C(Cl)Cl)cc2Cl)cc1-c1ccc(Cl)cc1Cl`, the mortality at 25 µg/mL with Plutella xylostella [1] came to 80%. Besides, in the test on Plutella xylostella [2], the mortality at 6.25 µg/mL amounted to 0%. Besides, the mortality at 100 µg/mL with Plutella xylostella [3] is 100%.

In the case of `Cc1ccc(C)c(-c2c(C)c(OCCCOc3c(Cl)cc(OCC=C(Cl)Cl)cc3Cl)nn2C)c1`, the mortality at 25 µg/mL with Plutella xylostella [1] came to 67%. In addition, the mortality at 6.25 µg/mL in the test on Plutella xylostella [2] turned out to be 37%. In the test with Plutella xylostella [3], the mortality at 100 µg/mL is 75%.

With `Cc1ccc(-c2c(C)c(OCCCOc3c(Cl)cc(OCC=C(Cl)Cl)cc3Cl)nn2C)cc1`, the mortality at 25 µg/mL in the test on Plutella xylostella [1] is 100%. For the same compound, in the test with Plutella xylostella [2], the mortality at 6.25 µg/mL came to 95%. In addition, in the test on Plutella xylostella [3], the mortality at 100 µg/mL came to 100%.

As to `Cc1c(OCCCOc2c(Cl)cc(OCC=C(Cl)Cl)cc2Cl)nn(C)c1-c1ccc(Cl)cc1`, the mortality at 25 µg/mL in the test with Plutella xylostella [1] was 50%. In the test with Plutella xylostella [2], the mortality at 6.25 µg/mL is 20%. The mortality at 100 µg/mL in the test on Plutella xylostella [3] turned out to be 80%.

For `CCc1ccc(-c2c(C)c(OCCCCOc3c(Cl)cc(OCC=C(Cl)Cl)cc3Cl)nn2C)cc1`, the mortality at 25 µg/mL in the test on Plutella xylostella [1] came to 50%. Also, the mortality at 6.25 µg/mL with Plutella xylostella [2] turned out to be 10%. The mortality at 100 µg/mL in the test with Plutella xylostella [3] amounted to 100%.

Regarding `CCc1ccc(-c2c(C)c(OCCOc3c(Cl)cc(OCC=C(Cl)Cl)cc3Cl)nn2C)cc1`, the mortality at 25 µg/mL with Plutella xylostella [1] came out at 33%. Further, the mortality at 6.25 µg/mL with Plutella xylostella [2] came to 0%. Also, the mortality at 100 µg/mL in the test with Plutella xylostella [3] is 67%.

In the case of `Cc1ccc(-c2c(C)c(OCCOc3c(Cl)cc(OCC=C(Cl)Cl)cc3Cl)nn2C)cc1`, in the test on Plutella xylostella [1], the mortality at 25 µg/mL is 0%. Further, the mortality at 6.25 µg/mL in the test with Plutella xylostella [2] stood at 0%. Besides, in the test with Plutella xylostella [3], the mortality at 100 µg/mL was 17%.

Consider `Cc1c(OCCCOc2c(Cl)cc(OCC=C(Cl)Cl)cc2Cl)nn(C)c1-c1ccc(Cl)cc1Cl`, for which, in the test with Plutella xylostella [1], the mortality at 25 µg/mL was found to be 80%. Moreover, the mortality at 6.25 µg/mL in the test with Plutella xylostella [2] was found to be 67%. In addition, the mortality at 100 µg/mL with Plutella xylostella [3] worked out at 85%.

`Cc1ccc(-c2cc(OCCCOc3c(Cl)cc(OCC=C(Cl)Cl)cc3Cl)nn2C)cc1C`: the mortality at 25 µg/mL with Plutella xylostella [1] amounted to 50%. Moreover, the mortality at 6.25 µg/mL in the test with Plutella xylostella [2] was 0%. Also, the mortality at 100 µg/mL in the test with Plutella xylostella [3] amounted to 80%.

With `CCc1ccc(-c2cc(OCCCOc3c(Cl)cc(OCC=C(Cl)Cl)cc3Cl)nn2C)cc1`, in the test on Plutella xylostella [1], the mortality at 25 µg/mL was 40%. In addition, in the test with Plutella xylostella [2], the mortality at 6.25 µg/mL was determined as 30%. Moreover, the mortality at 100 µg/mL in the test with Plutella xylostella [3] amounted to 70%.

As for `Cc1ccc(-c2cc(OCCCOc3c(Cl)cc(OCC=C(Cl)Cl)cc3Cl)nn2C)c(C)c1`, the mortality at 25 µg/mL with Plutella xylostella [1] is 50%. Further, the mortality at 6.25 µg/mL in the test with Plutella xylostella [2] was determined as 30%. The mortality at 100 µg/mL with Plutella xylostella [3] was 90%.

As for `Cc1c(OCCCOc2c(Cl)cc(OCC=C(Cl)Cl)cc2Cl)nn(C)c1-c1ccc(F)cc1`, the mortality at 25 µg/mL in the test with Plutella xylostella [1] came out at 80%. Moreover, in the test with Plutella xylostella [2], the mortality at 6.25 µg/mL came out at 30%. Also, the mortality at 100 µg/mL in the test with Plutella xylostella [3] worked out at 100%.

On to `Cc1c(OCCCOc2c(Cl)cc(OCC=C(Cl)Cl)cc2Cl)nn(C)c1-c1ccc(Cl)c(Cl)c1`, for which the mortality at 25 µg/mL in the test on Plutella xylostella [1] came to 75%. Also, in the test on Plutella xylostella [2], the mortality at 6.25 µg/mL worked out at 50%. Moreover, in the test on Plutella xylostella [3], the mortality at 100 µg/mL was determined as 100%.

Consider `Cc1c(OCCCOc2c(Cl)cc(OCC=C(Cl)Cl)cc2Cl)nn(C)c1-c1ccccc1`, for which the mortality at 25 µg/mL with Plutella xylostella [1] was found to be 30%. Besides, the mortality at 6.25 µg/mL in the test with Plutella xylostella [2] is 0%. Also, the mortality at 100 µg/mL in the test with Plutella xylostella [3] was found to be 100%.

As to `CCOc1ccc(-c2c(C)c(OCCCOc3c(Cl)cc(OCC=C(Cl)Cl)cc3Cl)nn2C)cc1`, the mortality at 25 µg/mL with Plutella xylostella [1] stood at 20%. Moreover, the mortality at 6.25 µg/mL in the test with Plutella xylostella [2] is 10%. In the test with Plutella xylostella [3], the mortality at 100 µg/mL is 100%.

As to `Cc1ccccc1-c1cc(OCCCOc2c(Cl)cc(OCC=C(Cl)Cl)cc2Cl)nn1C`, in the test with Plutella xylostella [1], the mortality at 25 µg/mL stood at 70%. Besides, the mortality at 6.25 µg/mL in the test on Plutella xylostella [2] is 40%. For the same compound, the mortality at 100 µg/mL in the test with Plutella xylostella [3] was found to be 100%.

For `Cn1nc(OCCCOc2c(Cl)cc(OCC=C(Cl)Cl)cc2Cl)cc1-c1ccccc1`, in the test with Plutella xylostella [1], the mortality at 25 µg/mL worked out at 100%. For the same compound, in the test on Plutella xylostella [2], the mortality at 6.25 µg/mL was found to be 75%. In addition, in the test with Plutella xylostella [3], the mortality at 100 µg/mL stood at 100%.

Turning to `Cc1ccc(-c2c(C)c(OCCCCOc3c(Cl)cc(OCC=C(Cl)Cl)cc3Cl)nn2C)cc1`, the mortality at 25 µg/mL in the test with Plutella xylostella [1] is 50%. For the same compound, in the test on Plutella xylostella [2], the mortality at 6.25 µg/mL was 42%. The mortality at 100 µg/mL with Plutella xylostella [3] amounted to 100%.

`Cc1c(OCCCOc2c(Cl)cc(OCC=C(Cl)Cl)cc2Cl)nn(C)c1-c1ccc(C(C)(C)C)cc1`: in the test on Plutella xylostella [1], the mortality at 25 µg/mL came to 87%. The mortality at 6.25 µg/mL in the test with Plutella xylostella [2] was 30%. For the same compound, in the test with Plutella xylostella [3], the mortality at 100 µg/mL was 100%.

Source of the values: ChEMBL document CHEMBL3045955, “Design, synthesis and structure-activity relationship of novel insecticidal dichloro-allyloxy-phenol derivatives containing substituted pyrazol-3-ols” (2013).
